Assay results from patent US7741323B2, “Indene derivatives and process for the preparation thereof” (Korea Research Institute of Chemical Technology, priority 2004, dated 2010).

Columns and labels:
human PPARγ = target: T1, human PPARγ (Homo sapiens, UniProt P37231); assay: PPARγ activation test (GAL-4/luciferase reporter in NIH/3T3 cell); format: cell-based; conditions: GAL-4/human PPARγ LBD luciferase reporter, 24 hrs incubation
T1 construct: expressed in transfected cells; host or cells: NIH/3T3 cells (mouse fibroblasts)
T1 sequence (P37231 238-503 limits assumed): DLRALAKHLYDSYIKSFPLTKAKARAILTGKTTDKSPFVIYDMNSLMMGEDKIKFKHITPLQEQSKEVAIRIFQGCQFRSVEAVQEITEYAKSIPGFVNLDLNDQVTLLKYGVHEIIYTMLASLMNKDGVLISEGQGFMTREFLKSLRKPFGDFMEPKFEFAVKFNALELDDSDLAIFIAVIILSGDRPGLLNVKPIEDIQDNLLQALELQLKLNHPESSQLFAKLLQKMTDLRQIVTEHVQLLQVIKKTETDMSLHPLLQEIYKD
Procedure: The activity for PPARγ activation was examined as follows.
The vector fused with the ligand binding domain of a human PPARγ gene and the DNA binding site of a yeast GAL-4 gene, and luciferase reporter vector were simultaneously transfected in NIH/3T3 cell. The cells were cultured for 24 hrs. The solution containing the cells at a concentration of 2×10^4 cells/well was placed on a 96-well plate. Then, each of the test compounds of the present invention or the control group without test compounds was added thereto. After incubating for 24 hrs, the cells were subjected to lysis.

ob/ob mice = assay: Effectiveness in lowering blood glucose level in ob/ob mice; format: in vivo
Procedure: The resulting solution was intraperitoneally administered to the mice at a dose of 50 mg/kg, once a day for 5 days, or orally administered to the mice, at a dose of 100 mg/kg, twice a day for 14 days. Days 1, 3 and 5 were selected for intraperitoneal administration, and days 5, 10 and 14, for oral administration, to collect blood samples for measuring the blood glucose levels. […] Upon the completion of the oral administration for 14 days, the mice were fasted for 16 hrs to perform OGTT (Oral Glucose Tolerance Test) to determine the changes in insulin sensitivity induced by the oral administration. After administrating glucose to the mice at a dose of 2 g/kg orally, blood samples were collected at 0, 15, 30 60 and 120 minutes to measure blood glucose levels.

C57/BL6J mice = assay: Suppression of blood glucose and insulin levels in high fat diet C57/BL6J mice; format: in vivo
Source text: Days 1, 3 and 5 were selected for intraperitoneal administration, and days 5, 10 and 14, for oral administration, to collect blood samples for measuring the blood glucose levels. […] Upon the completion of the oral administration for 14 days, the mice were fasted for 16 hrs to perform OGTT (Oral Glucose Tolerance Test) to determine the changes in insulin sensitivity induced by the oral administration. After administrating glucose to the mice at a dose of 2 g/kg orally, blood samples were collected at 0, 15, 30 60 and 120 minutes to measure blood glucose levels.
The extents of suppression of blood glucose and insulin levels were measured as mentioned above. To check possible adverse side effects caused by the administration of the compound, the weight, heart weight and liver weight of each mouse were measured. GPT and GOT values were also calculated by employing a kit available in the market.

[1] = Adverse side effects check (weight, heart weight, liver weight, GPT/GOT) in high fat diet C57/BL6J mice; format: in vivo; conditions: for GOT / GPT / Heart Weight / Liver Weight / Weight: high fat diet C57/BL6J mice, oral administration for 14 days
Procedure: To check possible adverse side effects caused by the administration of the compound, the weight, heart weight and liver weight of each mouse were measured. GPT and GOT values were also calculated by employing a kit available in the market.

[2] = high fat diet C57/BL6J mice, after 14 days oral administration
[3] = high fat diet C57/BL6J mice, oral administration once a day for 14 days

Row | melting point | EC50 (human PPARγ) | Compound | further results
1 | 153 to 155 °C | – | CC(C)OC(=O)C1=C(c2ccccc2)c2ccc(OCCN3CCOCC3)cc2/C1=[N+](\C)[O-] [Compound 101, 1-(cis-methylimino-N-oxy)-6-(2-morpholine-4-ylethoxy)-3-phenyl-1H-indene-2-carboxylate isopropyl ester] | –
2 | 79 to 81 °C | 25 nM | CC(C)OC(=O)C1=C(c2ccccc2)c2ccc(OCCN3CCOCC3)cc2/C1=[N+](/C)[O-] [Compound 8] | –
3 | – | 110 nM | C/[N+]([O-])=C1\C(C(N)=O)=C(c2ccccc2)c2ccc(OCCCc3ccccc3)cc21 [Compound 73, 1-(trans-methylimino-N-oxy)-3-phenyl-6-(3-phenylpropoxy)-1H-indene-2-carboxylate amide] | –
4 | – | 170 nM | CC(C)NC(=O)C1=C(c2ccccc2)c2ccc(OCCCc3ccccc3)cc2/C1=[N+](/C)[O-] [Compound 38, 1-(trans-methylimino-N-oxy)-3-phenyl-6-(3-phenylpropoxy)-1H-indene-2-carboxylate isopropyl amide] | –
5 | – | 20 nM | CCOC(=O)C1=C(c2ccccc2)c2ccc(OCCc3ccc(CC)cn3)cc2/C1=[N+](/C)[O-] [Compound 79, 6-[2-(5-ethylpyridine-2-yl)ethoxy]-1-(trans-methylimino-N-oxy)-3-phenyl-1H-indene-2-carboxylate ethyl ester] | –
6 | 151 to 152 °C | – | CCOC(=O)C1=C(c2ccccc2)c2ccc(OCCN3CCOCC3)cc2/C1=[N+](\C)[O-] [Compound 45, 1-(cis-methylimino-N-oxy)-6-(2-morpholine-4-ylethoxy)-3-phenyl-1H-indene-2-carboxylate ethyl ester] | –
7 | – | 170 nM | CCOC(=O)C1=C(c2ccccc2)c2ccc(CN3CCOCC3)cc2/C1=[N+](/C)[O-] [Compound 77, 1-(trans-methylimino-N-oxy)-6-morpholine-4-ylmethyl-3-phenyl-1H-indene-2-carboxylate ethyl ester] | –
8 | 122 to 123 °C | – | C/[N+]([O-])=C1\C=C(c2ccccc2)c2ccc(OCCN3CCOCC3)cc21 [Compound 82, methyl-[6-(2-morpholine-4-ylethoxy)-3-phenylindene-1-yllidene]amine-N-oxide] | –
9 | – | 12 nM | C/[N+]([O-])=C1\C(C(=O)NC2CCCCC2)=C(c2ccccc2)c2ccc(OCCN3CCOCC3)cc21 [Compound 41, 1-(trans-methylimino-N-oxy)-6-(2-morpholine-4-yl-ethoxy)-3-phenyl-1H-indene-2-carboxylate cyclohexyl amide] | –
10 | – | – | 1-hydroxy-6-(2-morpholine-4-yl-ethoxy)-1,3-diphenyl-1H-indene-2-carboxylic acid ethyl ester [Example 8] | % Inhibition, Oral Glucose Tolerance Test (Blood Glucose) (ob/ob mice; ob/ob mice after 14 days oral administration, fasted 16 hrs, glucose 2 g/kg orally, total blood glucose over 120 minutes): 10.2%; % Inhibition, blood glucose, Intraperitoneal Administration (50 mg/kg/day) (ob/ob mice; ob/ob mice, i.p. 50 mg/kg once a day for 5 days, relative to control): 32.0%; % Inhibition, blood glucose, Oral Administration (100 mg/kg/day) (ob/ob mice; ob/ob mice, oral 100 mg/kg twice a day for 14 days, relative to control): 23.7%; effect in lowering blood glucose and insulin levels (C57/BL6J mice; administered orally or intraperitoneally, summary of Tables 6, 7 and 8): excellent effect in lowering both blood glucose and insulin levels; % Inhibition, Oral Glucose Tolerance Test (Glucose) (C57/BL6J mice; [2]): 23.8%; % Inhibition, Oral Glucose Tolerance Test (Insulin) (C57/BL6J mice; [2]): 56.2%; % Inhibition, Blood glucose concentration (C57/BL6J mice; [3]): 30.0%; % Inhibition, Blood insulin concentration (C57/BL6J mice; [3]): 44.6%; GOT [1]: 39 ± 7.8 karmen; GPT [1]: 29 ± 3.2/ karmen; Heart Weight [1]: 0.123 ± 0.007 g; Liver Weight [1]: 1.06 ± 0.17 g; Weight [1]: 35 ± 1.1 g; side effects (weight gain, hepatotoxicity, cardiotoxicity) ([1]; summary of Tables 6, 7 and 8): no side effects such as weight gain, hepatotoxicity or cardiotoxicity
11 | – | 80 nM | CCOC(=O)C1=C(c2ccccc2)c2ccc(COCCc3ccccc3)cc2/C1=[N+](/C)[O-] [Compound 43, 1-(trans-methylimino-N-oxy)-6-phenethyloxymethyl-3-phenyl-1H-indene-2-carboxylate ethyl ester] | –
12 | 102 to 104 °C | – | CCOC(=O)C1=C(c2ccccc2)c2ccc(OCCN3CCOCC3)cc2/C1=[N+](/C)[O-] [Compound 33, 1-(trans-methylimino-N-oxy)-6-(2-morpholine-4-ylethoxy)-3-phenyl-1H-indene-2-carboxylate ethyl ester] | –
13 | – | 10 nM | CCOC(=O)C1=C(C2CC2)c2ccc(OCCCc3ccccc3)cc2/C1=[N+](/C)[O-] [Compound 68, 3-cyclopropyl-1-(trans-methylimino-N-oxy)-6-(3-phenylpropoxy)-1H-indene-2-carboxylate ethyl ester] | –
14 | 77 to 79 °C | 80 nM | CC(C)NC(=O)C1=C(c2csc3ccccc23)c2ccc(OCCN3CCOCC3)cc2/C1=[N+](/C)[O-] [Compound 94, 3-benzo-[b]-thiophene-3-yl-1-(trans-methylimino-N-oxy)-6-(2-morpholine-4-ylethoxy)-1H-indene-2-carboxylate isopropyl amide] | –
15 | – | 80 nM | CCOC(=O)C1=C(c2ccccc2)c2cc(OCCCc3ccccc3)ccc2/C1=[N+](/C)[O-] [Compound 42, 1-(trans-methylimino-N-oxy)-3-phenyl-5-(3-phenylpropoxy)-1H-indene-2-carboxylate ethyl ester] | –
16 | 158 to 159 °C | – | CC(C)NC(=O)C1=C(c2ccccc2)c2cc(OCCc3ccccn3)ccc2/C1=[N+](/C)[O-] [Compound 99, 1-(trans-methylimino-N-oxy)-3-phenyl-5-(2-pyridine-2-ylethoxy)-1H-indene-2-carboxylate isopropyl amide] | –
17 | – | – | CN(CCOc1ccc(CC2SC(=O)NC2=O)cc1)c1ccccn1 (stereo not shown) [Rosiglitazone, reference compound] | GOT [1]: 70 ± 8.2 karmen; GPT [1]: 85 ± 12/ karmen; Heart Weight [1]: 0.140 ± 0.009 g; Liver Weight [1]: 1.56 ± 0.18 g; Weight [1]: 39 ± 1.6 g
18 | 134 to 137 °C | – | CC(C)NC(=O)C1=C(c2ccccc2)c2cc(OCCN3CCOCC3)ccc2/C1=[N+](/C)[O-] [Compound 100, 1-(trans-methylimino-N-oxy)-5-(2-morpholine-4-ylethoxy)-3-phenyl-1H-indene-2-carboxylate isopropyl amide] | –
19 | 124 to 126 °C | 100 nM | CC(C)NC(=O)C1=C(c2ccccc2)c2ccc(OCCc3ccccn3)cc2/C1=[N+](/C)[O-] [Compound 80, 1-(trans-methylimino-N-oxy)-3-phenyl-6-(2-pyridine-2-ylethoxy)-1H-indene-2-carboxylate isopropyl amide] | –
20 | 123 to 125 °C | 200 nM | CC(C)NC(=O)C1=C(c2ccccc2)c2ccc(OCCN3CCOCC3)cc2/C1=[N+](/C)[O-] [Compound 50, 1-(trans-methylimino-N-oxy)-6-(2-morpholine-4-ylethoxy)-3-phenyl-1H-indene-2-carboxylate isopropyl amide] | –
21 | 126 to 128 °C | 95 nM | C/[N+]([O-])=C1\C(C#N)=C(c2ccccc2)c2ccc(OCCCc3ccccc3)cc21 [Compound 75, 1-(trans-methylimino-N-oxy)-3-phenyl-6-(3-phenylpropoxy)-1H-indene-2-carbonitrile] | –
22 | – | 45 nM | C/[N+]([O-])=C1\C(C(=O)NC2CCCCC2)=C(c2ccccc2)c2ccc(OCCCc3ccccc3)cc21 [Compound 39, 1-(trans-methylimino-N-oxy)-3-phenyl-6-(3-phenylpropoxy)-1H-indene-2-carboxylate cyclohexyl amide] | –
23 | – | 45 nM | CCc1ccc(CCOc2ccc3c(c2)/C(=[N+](/C)[O-])C(C(=O)NC(C)C)=C3c2ccccc2)nc1 [Compound 81, 6-[2-(5-ethylpyridine-2-yl)ethoxy]-1-(trans-methylimino-N-oxy)-3-phenyl-1H-indene-2-carboxylate isopropyl amide] | –
24 | – | 50 nM | CCOC(=O)C1=C(c2ccccc2)c2ccc(OCCC3CCCCC3)cc2/C1=[N+](/C)[O-] [Compound 25, 6-(2-cyclohexylethoxy)-1-(trans-methylimino-N-oxy)-3-phenyl-1H-indene-2-carboxylate ethyl ester] | –
25 | – | 150 nM | CCOC(=O)C1=C(c2ccccc2)c2ccc(OCCCCCc3ccccc3)cc2/C1=[N+](/C)[O-] [Compound 15, 1-(trans-methylimino-N-oxy)-3-phenyl-6-(5-phenylpentyloxy)-1H-indene-2-carboxylate ethyl ester] | –
26 | 119 to 121 °C | 10 nM | CCOC(=O)C1=C(c2ccccc2)c2cc3c(cc2/C1=[N+](/C)[O-])OCO3 [Compound 48, 1-(trans-methylimino-N-oxy)-5,6-methylenedioxy-1-oxo-3-phenyl-1H-indene-2-carboxylate ethyl ester] | –
